Where a name gives a salt, the structure may show the parent alone.
target: human PKR1 receptors (Homo sapiens (Human), UniProt Q8TCW9); test: PKR1 antagonist intracellular calcium (FLIPR) assay, block of PK1-mediated calcium release; format: cell-based; conditions: RBL2H3 cells expressing human PKR1; PK1 at EC80; minimum of two independent assays
Protocol: Prokineticin receptor 1 (PKR1) antagonists may be functionally assessed by measurement of change in intracellular calcium levels induced by Gq mediated increase in inositol triphosphate (IP3) levels. The ability of a compound to block the intracellular release of calcium mediated by PK1 in RBL2H3 cells expressing human PKR1 receptors is determined as a measure of the compound's antagonist activity in vitro.
Approximately 10,000 cells per assay well are seeded in normal culture medium in a 384 well plate (Corning). Twenty-four hours after seeding, the cells are loaded with a calcium sensitive fluorescent dye by replacing the culture medium with assay buffer (1× Hanks buffered saline, 25 mM HEPES, 0.1% w/v fatty acid free BSA (bovine serum albumin), pH 7.4) containing 1 mM probenecid and 1× Calcium 5 Reagent (Molecular Devices). Cells are incubated at 37° C. for 1 hour to allow for dye uptake.
To test for antagonist activity, test compounds at a final concentration range between 0.32 nM-10 μM (diluted in assay buffer) are added to duplicate assay wells and allowed to incubate for 10 minutes prior to stimulation with PK1. After incubation with test compounds the assay plate is placed in a FLIPR Tetra (Molecular Devices) and PK1 (diluted in assay buffer) is added at the determined EC80 concentration (final). Ligand-dependent changes in intracellular calcium levels are determined by measuring changes in fluorescence of the dye at […] following excitation at 485 nm. […] A minimum of two IC50 values determined from independent assays are generated for each compound.

human PKR1 receptors, sequence (Q8TCW9 whole entry): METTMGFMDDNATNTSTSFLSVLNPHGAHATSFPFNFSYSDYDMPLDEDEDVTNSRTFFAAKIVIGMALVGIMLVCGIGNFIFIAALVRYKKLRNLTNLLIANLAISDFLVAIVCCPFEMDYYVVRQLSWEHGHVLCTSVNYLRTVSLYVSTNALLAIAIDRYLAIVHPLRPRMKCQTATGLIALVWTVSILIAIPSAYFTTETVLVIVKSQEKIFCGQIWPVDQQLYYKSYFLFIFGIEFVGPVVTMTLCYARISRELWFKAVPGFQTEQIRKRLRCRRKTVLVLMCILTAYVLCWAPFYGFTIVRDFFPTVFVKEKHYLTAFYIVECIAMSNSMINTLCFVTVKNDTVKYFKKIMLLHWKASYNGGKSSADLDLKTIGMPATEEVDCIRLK

Row | IC50 [nM] | Compound
1 | 320 | CC(C)n1c(C2CCCN(C(=O)c3ccnc(N(C)C)c3)C2)nc2ccccc21 (racemic) [Example 1, N,N-Dimethyl-4-{3-[1-(propan-2-yl)-1H-1,3-benzodiazol-2-yl]piperidin-1-carbonyl}pyridin-2-amine (racemic)]
2 | 330 | CC(C)n1c(C2CCCN(C(=O)c3ccnc(N(C)C)c3)C2)nc2ccccc21 (single isomer, unassigned; enantiomer 1) [Example 2, N,N-Dimethyl-4-{3-[1-(propan-2-yl)-1H-1,3-benzodiazol-2-yl]piperidine-1-carbonyl}pyridin-2-amine (enantiomer 1)]
3 | 9060 | CC(C)n1c(C2CCCN(C(=O)c3ccnc(N(C)C)c3)C2)nc2ccccc21 (single isomer, unassigned; enantiomer 2) [Example 3, N,N-Dimethyl-4-{3-[1-(propan-2-yl)-1H-1,3-benzodiazol-2-yl]piperidine-1-carbonyl}pyridin-2-amine (enantiomer 2)]
4 | 1220 | CN(C)c1cc(C(=O)N2CCCC(c3nc4ccccc4n3C)C2)ccn1 (centres unmarked) [Example 4, N,N-Dimethyl-4-[3-(1-methyl-1H-1,3-benzodiazol-2-yl)piperidine-1-carbonyl]pyridin-2-amine]
5 | 7460 | CC(C)n1c(C2CCCN(C(=O)c3cnnc(Cl)c3)C2)nc2ccccc21 (centres unmarked) [Example 5, 2-[1-(6-Chloropyridazine-4-carbonyl)piperidin-3-yl]-1-(propan-2-yl)-1H-1,3-benzodiazole]
6 | 1740 | CNc1cc(C(=O)N2CCCC(c3nc4ccccc4n3C(C)C)C2)cnn1 (centres unmarked) [Example 6, N-Methyl-5-{3-[1-(propan-2-yl)-1H-1,3-benzodiazol-2-yl]piperidine-1-carbonyl}pyridazin-3-amine]
7 | 1820 | CCn1cc(C(=O)N2CCCC(c3nc4ccccc4n3C(C)C)C2)cn1 (centres unmarked) [Example 7, 2-[1-(1-Ethyl-1H-pyrazole-4-carbonyl)piperidin-3-yl]-1-(propan-2-yl)-1H-1,3-benzodiazole]
8 | 1070 | CN(C)c1cc(C(=O)N2CCCC(c3cc4ccccc4n3C)C2)ccn1 (centres unmarked) [Example 8, N,N-Dimethyl-4-[3-(1-methyl-1H-indol-2-yl)piperidine-1-carbonyl]pyridin-2-amine]
9 | 1080 | CNc1cc(C(=O)N2CCCC(c3cc4ccccc4n3C)C2)cnn1 (centres unmarked) [Example 9, N-Methyl-5-[3-(1-methyl-1H-indol-2-yl)piperidine-1-carbonyl]pyridazin-3-amine]
10 | 390 | CCn1c(C2CCCN(C(=O)c3ccnc(N(C)C)c3)C2)cc2ccccc21 (centres unmarked) [Example 10, 4-[3-(1-Ethyl-1H-indol-2-yl)piperidine-1-carbonyl]-N,N-dimethylpyridin-2-amine]
11 | 940 | CCn1c(C2CCCN(C(=O)c3cnnc(N(C)C)c3)C2)cc2ccccc21 (centres unmarked) [Example 11, 5-[3-(1-Ethyl-1H-indol-2-yl)piperidine-1-carbonyl]-N,N-dimethylpyridazin-3-amine]
12 | 480 | CCn1c(C2CCCN(C(=O)c3cnnc(NC)c3)C2)cc2ccccc21 (centres unmarked) [Example 12, 5-[3-(1-Ethyl-1H-indol-2-yl)piperidine-1-carbonyl]-N-methylpyridazin-3-amine]
13 | 760 | CC(C)n1c(C2CCCN(C(=O)c3cnnc(N(C)C)c3)C2)cc2ccccc21 (centres unmarked) [Example 13, N,N-Dimethyl-5-{3-[1-(propan-2-yl)-1H-indol-2-yl]piperidine-1-carbonyl}pyridazin-3-amine]
14 | 540 | CNc1cc(C(=O)N2CCCC(c3cc4ccccc4n3C(C)C)C2)cnn1 (centres unmarked) [Example 14, N-Methyl-5-{3-[1-(propan-2-yl)-1H-indol-2-yl]piperidine-1-carbonyl}pyridazin-3-amine]
15 | 330 | CCn1cc(C(=O)N2CCCC(c3cc4ccccc4n3C(C)C)C2)cn1 (centres unmarked) [Example 15, 2-{1-[(1-Ethyl-1H-pyrazol-4-yl)carbonyl]piperidin-3-yl}-1-(propan-2-yl)-1H-indole]
16 | 1440 | CC(C)n1c(C2CCCN(C(=O)c3cn(C)nc3N)C2)cc2ccccc21 (centres unmarked) [Example 16, 1-Methyl-4-{3-[1-(propan-2-yl)-1H-indol-2-yl]piperidine-carbonyl}-1H-pyrazol-3-amine]
17 | 2590 | CCn1cc(C(=O)N2CCCC(c3cc4cc(C)ccc4n3CC)C2)cn1 (centres unmarked) [Example 17, 1-Ethyl-2-{1-[(1-ethyl-1H-pyrazol-4-yl)carbonyl]piperidin-3-yl}-5-methyl-1H-indole]
18 | 2170 | CCn1c(C2CCCN(C(=O)c3cnnc(NC)c3)C2)c(C)c2ccccc21 (centres unmarked) [Example 18, 5-[3-(1-Ethyl-3-methyl-1H-indol-2-yl)piperidine-1-carbonyl]-N-methylpyridazin-3-amine]
19 | 2690 | CCn1c(C2CCCN(C(=O)c3cnnc(NC)c3)C2)cc2cc(C)ccc21 (centres unmarked) [Example 19, 5-[3-(1-Ethyl-5-methyl-1H-indol-2-yl)piperidine-1-carbonyl]-N-methylpyridazin-3-amine]
20 | 1250 | CCn1c(C2CCCN(C(=O)c3cnnc(NC)c3)C2)cc2cc(Cl)ccc21 (centres unmarked) [Example 20, 5-[3-(5-Chloro-1-ethyl-1H-indol-2-yl)piperidine-1-carbonyl]-N-methylpyridazin-3-amine]
21 | 5340 | CCn1c(C2CCCN(C(=O)c3cnnc(N(C)C)c3)C2)cc2cc(C)ccc21 (centres unmarked) [Example 21, 5-[3-(1-Ethyl-5-methyl-1H-indol-2-yl)piperidine-1-carbonyl]-N,N-dimethylpyridazin-3-amine]
22 | 1730 | CCn1c(C2CCCN(C(=O)c3cnnc(N(C)C)c3)C2)cc2cc(Cl)ccc21 (centres unmarked) [Example 22, 5-[3-(5-Chloro-1-ethyl-1H-indol-2-yl)piperidine-1-carbonyl]-N,N-dimethylpyridazin-3-amine]
23 | 7410 | CNc1cc(C(=O)N2CCCC(c3[nH]c4ccccc4c3C)C2)cnn1 (centres unmarked) [Example 23, N-Methyl-5-[3-(3-methyl-1H-indol-2-yl)piperidine-1-carbonyl]pyridazin-3-amine]
24 | 7410 | Cc1c(C2CCCN(C(=O)c3cnnc(N(C)C)c3)C2)[nH]c2ccccc12 (centres unmarked) [Example 24, N,N-Dimethyl-5-[3-(3-methyl-1H-indol-2-yl)piperidine-1-carbonyl]pyridazin-3-amine]
25 | 7860 | CCn1c(C2CCCN(C(=O)c3cn(C)nc3N)C2)c(C)c2ccccc21 (centres unmarked) [Example 25, 4-[3-(1-Ethyl-3-methyl-1H-indol-2-yl)piperidine-1-carbonyl]-1-methyl-1H-pyrazol-3-amine]
26 | 3120 | CCn1c(C2CCCN(C(=O)c3cn(C)nc3N)C2)cc2cc(C)ccc21 (centres unmarked) [Example 26, 4-[3-(1-Ethyl-5-methyl-1H-indol-2-yl)piperidine-1-carbonyl]-1-methyl-1H-pyrazol-3-amine]
27 | 910 | CCn1c(C2CCCN(C(=O)c3cn(C)nc3N)C2)cc2cc(Cl)ccc21 (centres unmarked) [Example 27, 4-[3-(5-Chloro-1-ethyl-1H-indol-2-yl)piperidine-1-carbonyl]-1-methyl-1H-pyrazol-3-amine]
28 | 1040 | Cc1cc(Cl)cnc1C1CCCN(C(=O)c2cnnc(N(C)C)c2)C1 (centres unmarked) [Example 28, 5-[3-(5-Chloro-3-methylpyridin-2-yl)piperidine-1-carbonyl]-N,N-dimethylpyridazin-3-amine]
29 | 480 | CNc1cc(C(=O)N2CCCC(OC)(c3ncc(Cl)cc3C(F)(F)F)C2)ccn1 (centres unmarked) [Example 29, 4-{3-[5-Chloro-3-(trifluoromethyl)pyridin-2-yl]-3-methoxypiperidine-1-carbonyl}-N-methylpyridin-2-amine formate]

— patent publication US10562882B2, “Piperidine derivatives for use in the treatment or prevention of psychiatric and neurological conditions” (Takeda Pharmaceutical Company Limited, priority 2013, dated 2020)
